Measured values as given in ChEMBL document CHEMBL4627399, “Synthesis and Structure-Activity Relationships of 5'-Aryl-14-alkoxypyridomorphinans: Identification of a μ Opioid Receptor Agonist/δ Opioid Receptor Antagonist Ligand with Systemic Antinociceptive Activity and Diminished Opioid Side Effects” (J Med Chem, 2020).
The source made the active and inactive calls. The calls are words filed in the database; no cut-off is given here.

Experiments:
Mu-type opioid receptor [1] = target: T1, Mu-type opioid receptor (Homo sapiens, UniProt P35372); assay: biochemical; format: cell-based, CHO
[2] = target: T2, Delta-type opioid receptor (Homo sapiens, UniProt P41143); assay: Displacement of [3H]-diprenorphine from human delta opioid receptor expressed in CHO cell membranes incubated for 1 hr by competition radioligand binding assay
[3] = target: T3, Kappa-type opioid receptor (Homo sapiens, UniProt P41145); assay: Displacement of [3H]-diprenorphine from human kappa opioid receptor expressed in CHO cell membranes incubated for 1 hr by competition radioligand binding assay
[4] = target: T2, Delta-type opioid receptor; assay: Antagonist activity at human delta opioid receptor expressed in CHO cell membranes assessed as reduction in SNC80-induced [35S]GTPgammaS binding preincubated for 5 mins followed by SNC80 addition and measured after 1 hr; format: functional
[5] = target: T3, Kappa-type opioid receptor; assay: Agonist activity at human kappa opioid receptor expressed in CHO cell membranes incubated for 1 hr by [35S]GTPgammaS binding assay; format: functional; conditions: cho
[6] = target: T3, Kappa-type opioid receptor; assay: Agonist activity at human kappa opioid receptor expressed in CHO cell membranes assessed as stimulation of [35S]GTPgammaS binding incubated for 1 hr relative to […]; format: functional
Mus musculus [7] = assay: Antinociceptive activity in iv dosed CD-1 mouse measured after 15 mins by warm water tail-flick assay; format: functional, organism-based
[8] = Stability in human liver microsomes at 1 uM measured up to 60 mins by LC-MS/MS analysis; format: ADME, Microsome; conditions: 1 h
Mu-type opioid receptor [9] = target: T1, Mu-type opioid receptor; assay: biochemical
Mu-type opioid receptor [10] = target: T1, Mu-type opioid receptor; assay: Agonist activity at human mu opioid receptor expressed in CHO cell membranes assessed as stimulation of [35S]GTPgammaS binding incubated for 1 hr relative to DAMGO; format: functional
Mu-type opioid receptor [11] = target: T1, Mu-type opioid receptor; conditions: cho
[12] = Induction of tidal volume in CD-1 mouse up to 32 mg/kg, ip administered via bolus under 5% CO2 exposure for 7 mins and measured over 45 mins by whole body plethysmography; format: organism-based; conditions: in vivo
Mus musculus [13] = assay: Antinociceptive activity in iv dosed CD-1 mouse measured after 10 to 180 mins by warm water tail-flick assay; format: functional, organism-based
Mus musculus [14] = assay: Antinociceptive activity in CD-1 mouse at 1 to 10 mg/kg, iv measured after 15 to 90 mins by warm water tail-flick assay; format: functional, organism-based
Mus musculus [15] = assay: Antinociceptive activity in naloxone induced CD-1 mouse at 32 mg/kg, sc measured over 4 hrs by warm water tail-flick assay; format: functional, organism-based
Mus musculus [16] = assay: Antinociceptive activity in CD-1 mouse administered twice daily at 9 am and 5 pm for 3 days measured on day 4 by warm water tail-flick assay; format: functional
[17] = Induction of spontaneous withdrawal in CD-1 mouse assessed as effect on urine output at 32 mg/kg, sc administered twice daily at 9 am and 5 pm for 3 days and measured on day 4 for 30 mins; format: organism-based; conditions: in vivo
[18] = Induction of spontaneous withdrawal in CD-1 mouse assessed as effect on fecal output at 32 mg/kg, sc and administered twice daily at 9 am and 5 pm for 3 days and measured on day 4 for 30 mins; format: organism-based; conditions: in vivo
[19] = Induction of spontaneous withdrawal in CD-1 mouse assessed as paw tremors at 32 mg/kg, sc and administered twice daily at 9 am and 5 pm for 3 days and measured on day 4 for 30 mins; format: organism-based; conditions: in vivo, 0.5 h
[20] = Induction of spontaneous withdrawal in CD-1 mouse assessed as ptosis at 32 mg/kg, sc and administered twice daily at 9 am and 5 pm for 3 days and measured on day 4 for 30 mins; format: organism-based; conditions: in vivo, 0.5 h
[21] = Induction of spontaneous withdrawal in CD-1 mouse assessed as effect on number of droppings at 32 mg/kg, sc and administered twice daily at 9 am and 5 pm for 3 days and measured on day 4 for 30 mins; format: organism-based; conditions: in vivo, 0.5 h
[22] = Induction of spontaneous withdrawal in CD-1 mouse assessed as effect on jumping behavior at 32 mg/kg, sc and administered twice daily at 9 am and 5 pm for 3 days and measured on day 4 for 30 mins; format: organism-based; conditions: in vivo, 0.5 h
[23] = Induction of spontaneous withdrawal in CD-1 mouse assessed as effect on backward walking steps at 32 mg/kg, sc and administered twice daily at 9 am and 5 pm for 3 days and measured on day 4 for 30 mins; format: organism-based; conditions: in vivo, 0.5 h
[24] = Induction of spontaneous withdrawal in CD-1 mouse assessed as wet dog shakes at 32 mg/kg, sc and administered twice daily at 9 am and 5 pm for 3 days and measured on day 4 for 30 mins; format: organism-based; conditions: in vivo, 0.5 h
[25] = Induction of spontaneous withdrawal in naloxone-induced CD-1 mouse assessed as increase in urine output at 32 mg/kg, sc administered twice daily at 9 am and 5 pm for 3 days pretreated followed by naloxone challenge on day 4 at 4 hrs post compound dose and measured for 40 mins; format: organism-based; conditions: in vivo
[26] = Induction of spontaneous withdrawal in naloxone-induced CD-1 mouse assessed as increase in fecal pellets at 32 mg/kg, sc administered twice daily at 9 am and 5 pm for 3 days pretreated followed by naloxone challenge on day 4 at 4 hrs post compound dose and measured for 40 mins; format: organism-based; conditions: in vivo
[27] = Induction of physical dependence in naloxone-induced CD-1 mouse assessed as increase in jumping behavior at 32 mg/kg, sc administered twice daily at 9 am and 5 pm for 3 days pretreated followed by naloxone challenge on day 4 at 4 hrs post compound dose and measured for 40 mins; format: organism-based; conditions: in vivo
[28] = Induction of physical dependence/precipitated withdrawal in naloxone-induced CD-1 mouse assessed as overall withdrawal score at 32 mg/kg, sc administered twice daily at 9 am and 5 pm for 3 days pretreated followed by naloxone challenge on day 4 at 4 hrs post compound dose and measured for 40 mins; format: organism-based; conditions: in vivo
[29] = Induction of respiratory depression in CD-1 mouse assessed as reduction in respiratory rate at 32 mg/kg, ip measured over 45 mins by plethysmography; format: organism-based; conditions: in vivo
[30] = Induction of respiratory depression in CD-1 mouse assessed as reduction in tidal volume at 32 mg/kg, ip measured over 45 mins by plethysmography; format: organism-based; conditions: in vivo
[31] = Induction of respiratory depression in CD-1 mouse assessed as reduction in minute ventilation at 32 mg/kg, ip measured over 45 mins by plethysmography; format: organism-based; conditions: in vivo
[32] = Reward liability in CD-1 mouse assessed as increase in conditioned place preference at 20 mg/kg, sc administered for 5 days and measured on day 5 for 15 mins; format: ADME, organism-based; conditions: in vivo
[33] = Reward liability in CD-1 mouse assessed as increase in conditioned place aversion at 20 mg/kg, sc administered for 5 days and measured on day 5 for 15 mins; format: ADME, organism-based; conditions: in vivo, 0.25 h

In the case of Cc1nnc(-c2cnc3c(c2)C[C@@]2(OCCCc4ccccc4)[C@H]4Cc5ccc(O)c6c5[C@@]2(CCN4CC2CC2)[C@H]3O6)o1, the Ki (Mu-type opioid receptor [1]) is reported as 3.18 nM, the Ki [2] is reported as 8.12 nM and the Ki [3] is reported as 14.8 nM. The IC50 [4] was under 0.17 nM, the EC50 [5] was “Not Active” and the Emax [6] was “inactive”. The Activity (Mus musculus [7]) was “Dose-dependent effect”, the Stability [8] was “Stable” and the EC50 (Mu-type opioid receptor [9]) was 17.5 nM.
For Oc1ccc2c3c1O[C@H]1c4ncc(-c5ccccc5)cc4C[C@@]4(OCCCc5ccncc5)[C@@H](C2)N(CC2CC2)CC[C@]314, the Ki (Mu-type opioid receptor [1]) was 3.82 nM, the Ki [2] was 29.2 nM and the Ki [3] was 21.9 nM. For the same molecule, the Emax (Mu-type opioid receptor [10]) was “inactive”, the IC50 [4] was under 0.51 nM and the Stability [8] was “Stable”. The EC50 (Mu-type opioid receptor [11]) was “Not Active”.
Molecule Oc1ccc2c3c1O[C@H]1c4ncc(-c5cnccn5)cc4C[C@@]4(OCCCc5ccccc5)[C@@H](C2)N(CC2CC2)CC[C@]314 has a Ki (Mu-type opioid receptor [1]) of 88.7 nM, a Ki [2] of 40.1 nM and a Ki [3] of 19.8 nM. For the same molecule, the IC50 [4] was 1.27 nM, the EC50 [5] was “Not Active” and the Emax [6] was “inactive”. For the same molecule, the Stability [8] was “Stable” and the EC50 (Mu-type opioid receptor [9]) was over 3330 nM.
Molecule Oc1ccc2c3c1O[C@H]1c4ncc(-c5ccc(Cl)cc5)cc4C[C@@]4(OCCOc5ccccc5)[C@@H](C2)N(CC2CC2)CC[C@]314 has a Ki (Mu-type opioid receptor [1]) of 819 nM, a Ki [2] of 172 nM and a Ki [3] of 21.3 nM. The Emax (Mu-type opioid receptor [10]) was “inactive”, the IC50 [4] was 25.4 nM and the Stability [8] was “Stable”. The EC50 (Mu-type opioid receptor [11]) was “Not Active”.
CN(C)c1ccc(-c2cnc3c(c2)C[C@@]2(OCCCc4ccccc4)[C@H]4Cc5ccc(O)c6c5[C@@]2(CCN4CC2CC2)[C@H]3O6)cc1 gave a Ki (Mu-type opioid receptor [1]) of 4.7 nM, a Ki [2] of 53.1 nM and a Ki [3] of 6.18 nM. The IC50 [4] was 2.53 nM, the EC50 [5] was “Not Active” and the Emax [6] was “inactive”. For the same molecule, the Stability [8] was “Stable” and the EC50 (Mu-type opioid receptor [9]) was 2.1 nM.
Molecule CN(C)c1cccc(-c2cnc3c(c2)C[C@@]2(OCCCc4ccccc4)[C@H]4Cc5ccc(O)c6c5[C@@]2(CCN4CC2CC2)[C@H]3O6)c1 has a Ki (Mu-type opioid receptor [1]) of 15.8 nM, a Ki [2] of 68.9 nM and a Ki [3] of 11.9 nM. For the same molecule, the IC50 [4] was 3.76 nM, the EC50 [5] was “Not Active” and the Emax [6] was “inactive”. For the same molecule, the Stability [8] was “Stable” and the EC50 (Mu-type opioid receptor [9]) was 1.5 nM.
Molecule COc1cccc(-c2cnc3c(c2)C[C@@]2(OCCCc4ccccc4)[C@H]4Cc5ccc(O)c6c5[C@@]2(CCN4CC2CC2)[C@H]3O6)c1 has a Ki [2] of 48 nM, a Ki [3] of 103 nM and an IC50 [4] of 2.4 nM. For the same molecule, the EC50 [5] was “Not Active”, the Emax [6] was “inactive” and the Activity [12] was “Toxic”. The Activity (Mus musculus [13]) was “Dose-dependent effect”, the Activity (Mus musculus [14]) was “Active” and the Activity (Mus musculus [15]) was “inactive”. The ED50 (Mus musculus [16]) was 25.4 mg/kg, the Activity [17] was “Non-Toxic” and the Activity [18] was “Non-Toxic”. The Activity [19] was “Non-Toxic”, the Activity [20] was “Non-Toxic” and the Activity [21] was “Non-Toxic”. For the same molecule, the Activity [22] was “Non-Toxic”, the Activity [23] was “Non-Toxic” and the Activity [24] was “Non-Toxic”. The Activity [25] was “Toxic”, the Activity [26] was “Toxic” and the Activity [27] was “Non-Toxic”. The Activity [28] was “Toxic”, the Activity [29] was “Non-Toxic” and the Activity [30] was “Non-Toxic”. The Activity [31] was “Non-Toxic”, the Activity [32] was “Non-Toxic” and the Activity [33] was “Non-Toxic”. The Stability [8] was “Stable”.
In the case of Oc1ccc2c3c1O[C@H]1c4ncc(-c5ccc(Cl)cc5)cc4C[C@@]4(OCc5ccc6ccccc6n5)[C@@H](C2)N(CC2CC2)CC[C@]314, the Ki (Mu-type opioid receptor [1]) is reported as 799 nM, the Ki [2] is reported as 32.5 nM and the Ki [3] is reported as 31 nM. The Emax (Mu-type opioid receptor [10]) was “inactive”, the IC50 [4] was 10.8 nM and the Stability [8] was “Stable”. The EC50 (Mu-type opioid receptor [11]) was “Not Active”.
In the case of Oc1ccc2c3c1O[C@H]1c4ncc(-c5cccnc5)cc4C[C@@]4(OCCCc5ccccc5)[C@@H](C2)N(CC2CC2)CC[C@]314, the Ki (Mu-type opioid receptor [1]) is reported as 82.7 nM, the Ki [2] is reported as 30.6 nM and the Ki [3] is reported as 27.8 nM. For the same molecule, the IC50 [4] was 0.67 nM, the EC50 [5] was “Not Active” and the Emax [6] was “inactive”. The Stability [8] was “Stable” and the EC50 (Mu-type opioid receptor [9]) was over 3330 nM.
In the case of Oc1ccc2c3c1O[C@H]1c4ncc(-c5ccc(Cl)cc5)cc4C[C@@]4(OCCCc5ccncc5)[C@@H](C2)N(CC2CC2)CC[C@]314, the Ki (Mu-type opioid receptor [1]) is reported as 5.37 nM, the Ki [2] is reported as 5.24 nM and the Ki [3] is reported as 10.3 nM. The Emax (Mu-type opioid receptor [10]) was “inactive”, the IC50 [4] was 4.69 nM and the Stability [8] was “Stable”. For the same molecule, the EC50 (Mu-type opioid receptor [11]) was “Not Active”.
Cn1cc(-c2cnc3c(c2)C[C@@]2(OCCCc4ccccc4)[C@H]4Cc5ccc(O)c6c5[C@@]2(CCN4CC2CC2)[C@H]3O6)cn1 gave a Ki (Mu-type opioid receptor [1]) of 3.79 nM, a Ki [2] of 7.96 nM and a Ki [3] of 8.4 nM. The IC50 [4] was 19.6 nM, the EC50 [5] was “Not Active” and the Emax [6] was “inactive”. The Stability [8] was “Stable” and the EC50 (Mu-type opioid receptor [9]) was 659 nM.
COc1cc(-c2cnc3c(c2)C[C@@]2(OCCCc4ccccc4)[C@H]4Cc5ccc(O)c6c5[C@@]2(CCN4CC2CC2)[C@H]3O6)ccn1 gave a Ki (Mu-type opioid receptor [1]) of 10.7 nM, a Ki [2] of 3.5 nM and a Ki [3] of 6.62 nM. The IC50 [4] was 0.7 nM, the EC50 [5] was “Not Active” and the Emax [6] was “inactive”. The Stability [8] was “Stable” and the EC50 (Mu-type opioid receptor [9]) was 2.69 nM.
